This data set in a line: gradient 5% acetonitrile 3 min, to 50% in 2 min, to 85% in 15 min, held 3 min, 100 µL/min. To be noted: column: Zorbax Extend-C18 2.1 x 50 mm; eluents: water / acetonitrile, 0.1% formic acid. In short, it runs like this:
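Pure standards were run in mixtures of ~100 molecules by HPLC coupled to a quadrupole time-of-flight mass spectrometer. The column was a Zorbax Extend-C18 (2.1 × 50 mm, 1.8 μm) at 100 μL/min, with water and acetonitrile each containing 0.1% formic acid, in positive and negative ionization mode. Dead and dwell volumes were 40 μL and 900 μL. Retention time was taken from computationally picked adduct peaks, each manually inspected, with data collected over 3 months.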
`CC(C)CN1CCn2cc(S(=O)(=O)NCc3ccccc3Cl)cc2C1=O` had an RP-LC retention time of 818 s.

On to `CC(=O)N1CCCc2cc(S(=O)(=O)CCC(=O)Nc3cc(C)ccc3C)ccc21`, for which the RP-LC retention time was 758 s.

With `CC1CCN(S(=O)(=O)c2ccc3c(c2)CCCC(=O)N3CC(=O)NCc2ccccc2)CC1`, the RP-LC retention time is 907 s.

With `O=C(Nc1ccccc1C(F)(F)F)N1CCc2nc(-c3ccccc3)ncc2C1`, the RP-LC retention time stood at 948 s.

In the case of `O=C1COc2cc(Cl)ccc2N1Cc1nc(-c2ccc(F)c(Br)c2)no1`, the RP-LC retention time worked out at 1210 s.

Take `COc1cc(NC(=O)Cn2cccc2-c2nnc(-c3ccccc3)o2)cc(OC)c1`: the RP-LC retention time worked out at 993 s.

Consider `O=C(Cn1nc(C(=O)N2CCCC2)c2ccccc21)Nc1cccc(C(F)(F)F)c1`, for which the RP-LC retention time turned out to be 912 s.

Take `O=C(NCC1CCN(C(=O)c2ccccc2F)CC1)c1ccc(Cl)s1`: the RP-LC retention time worked out at 781 s.

`CCCN(CC1CCOC1)C(=O)c1cc(C)cc(C)c1` (stereo not drawn) registered an RP-LC retention time of 868 s.

The compound `CC(C)Cn1c(=O)c(N2CCN(C(=O)c3ccc(Cl)cc3)CC2)nc2ccncc21` registered an RP-LC retention time of 689 s.

With `COc1ccc(-n2c(=O)n(C)c(=O)c3cc(C(=O)NCc4ccccc4OC)cnc32)cc1`, the RP-LC retention time was 859 s.

For the compound `CC(C)CN1C(=O)c2cccn2CC1CNC(=O)c1n[nH]c(=O)c2ccccc12` (stereo not drawn), the RP-LC retention time turned out to be 689 s.

Turning to `COc1ccc(C(=O)Nc2nnc(SCc3nnc(-c4ccccc4C)o3)s2)cc1`, the RP-LC retention time is 966 s.

`COC(=O)CC1=CC(SCC(=O)NC2CCc3ccccc32)=Nc2ccccc2N1` (stereo not drawn): the RP-LC retention time worked out at 547 s.

The compound `Cc1cc(C)c(NC(=O)Cn2cnc3c(sc4nc(-c5ccccc5)ccc43)c2=O)c(C)c1` returned an RP-LC retention time of 1050 s.

In turn, `Cc1cccc(NC(=O)Cn2nc(N3CCOCC3)c3ccccc3c2=O)c1` returned an RP-LC retention time of 783 s.

Consider `Cc1ccc(CNC(=O)C2(C)CN(S(C)(=O)=O)CC(=O)N2CCc2ccc(Cl)cc2)cc1` (stereo not drawn), for which the RP-LC retention time stood at 961 s.

`CCCOc1nn(CCC)cc1C(=O)N1CCC(C(=O)OC)CC1`: the RP-LC retention time turned out to be 736 s.

Regarding `COC(=O)C1=CN(C2CC2)c2cc(N3CCC4(CC3)OCCO4)c(F)cc2S1(=O)=O`, the RP-LC retention time is 806 s.

Turning to `Cc1ccc(N2CCN(S(=O)(=O)c3ccc(-c4nnc(C5CCC5)o4)o3)CC2)cc1`, the RP-LC retention time is 1120 s.

For the compound `COc1ccc(C2(C(=O)N3CCC4(CC3)c3nccn3-c3ccccc3CN4C)CC2)cc1`, the RP-LC retention time was 630 s.

`COc1ccc(-c2noc(CN3C(=O)COc4ccc(Cl)cc43)n2)c(OC)c1` registered an RP-LC retention time of 962 s.

`COc1ccc2nc(NCCn3cccn3)sc2c1` returned an RP-LC retention time of 599 s.

The compound `COc1ccc(-c2cc(N3CCN(C(=O)NC(C)C)CC3)ncn2)cc1OC` displayed an RP-LC retention time of 602 s.

On to `Cc1cc(C)c(CNC(=O)c2ccc3c(c2)CC(=O)N3C)c(C)c1`, for which the RP-LC retention time was 830 s.

`CN(CC1CCOC1)C(=O)Nc1ccc(Cl)cc1F` (stereo not drawn) displayed an RP-LC retention time of 728 s.

Regarding `Cc1[nH]c(C)c(S(=O)(=O)N2CCC(C(=O)NC3CCCCCCC3)CC2)c1C(=O)N1CCCC1`, the RP-LC retention time worked out at 745 s.

In turn, `Cc1ccccc1-c1noc(N2CCC(C(=O)N3CCN(C4CCCCC4)CC3)CC2)n1` had an RP-LC retention time of 705 s.

Turning to `COc1ccc(Cl)cc1NC(=O)c1cc(C2CC2)n2nccc2n1`, the RP-LC retention time was 1210 s.

With `O=C(CN1CCC2(CC1)N=C(c1ccc(F)cc1)C(=O)N2)Nc1cc(F)ccc1F`, the RP-LC retention time is 692 s.

For the compound `O=C(NC1CCCC1)c1nnc(-c2ccc(S(=O)(=O)N3CCCC3)cc2)o1`, the RP-LC retention time came out at 855 s.

For `N#Cc1ccc(NS(=O)(=O)c2cccc(-c3nc(-c4ccccc4)no3)c2)cc1`, the RP-LC retention time came out at 1090 s.

Turning to `Cc1nc2c(ccc3nc(NC(=O)c4ccc(N5C(=O)CCC5=O)cc4)sc32)s1`, the RP-LC retention time was found to be 717 s.

`O=C(c1ccccc1[N+](=O)[O-])N1c2nc(-c3ccccc3)nn2C2(CCCCC2)[C@@H]2CCCC[C@@H]21` had an RP-LC retention time of 755 s.

In the case of `CCc1ccc(-c2cc(C)no2)cc1S(=O)(=O)N1CCN(c2ccccn2)CC1`, the RP-LC retention time is 757 s.

Take `CCn1nc(C)c(CCN(C)C(=O)c2cc3c(s2)N(C)CCCC3)c1C`: the RP-LC retention time was 743 s.

Regarding `CC(C)Cn1c(CCNC(=O)c2ccccc2F)nc2cccnc21`, the RP-LC retention time stood at 698 s.

Turning to `O=C(c1cc(-c2cccnc2)n[nH]1)N1CCN(C(=O)c2cccc3[nH]ccc23)CC1`, the RP-LC retention time was determined as 598 s.

On to `CCN1C(=O)C2CC3(CCN(C(=O)c4ccoc4)CC3)CN2C1=O` (stereo not drawn), for which the RP-LC retention time is 628 s.

Take `CC1=C(C(=O)NC2CCN(Cc3ccccc3)CC2)C2(CCCCC2)OC1=O`: the RP-LC retention time is 633 s.

Consider `Cc1nn(-c2nc(-c3ccc(F)cc3)cs2)c(C)c1CC(=O)Nc1cccc(Cl)c1`, for which the RP-LC retention time came to 772 s.

`CCN1CCn2cc(S(=O)(=O)NCc3cc(F)cc(F)c3)cc2C1=O` showed an RP-LC retention time of 794 s.

Consider `COc1ccc(NS(=O)(=O)c2cc(-c3nc(C(C)(C)C)cs3)cs2)cc1F`, for which the RP-LC retention time is 1180 s.

Regarding `c1cc(-n2nnc3cnccc32)ccn1`, the RP-LC retention time was 637 s.

`COc1c(C=O)c(O)cc2c1C(=O)c1ccccc1C2=O` gave an RP-LC retention time of 967 s.

Turning to `O=C(Cc1nnc(-c2ccc3ncccc3c2)o1)Nc1cccc(Cl)c1`, the RP-LC retention time came out at 768 s.

Compound `CNC(=O)c1cc[nH]c1C1CCCN(C(=O)c2cscn2)C1` (stereo not drawn) returned an RP-LC retention time of 591 s.

The compound `CCOC(=O)c1cnc(Nc2nc(-c3ccccc3)c3ccccc3n2)nc1C` returned an RP-LC retention time of 876 s.

`Cc1ccc(-c2nc(-c3ccc4c(c3)oc(=O)n4C(C)C)no2)cc1` displayed an RP-LC retention time of 1280 s.

With `COc1ccc(-c2cc3n(n2)CCCN(C(=O)NCc2ccccc2)C3)cc1OC`, the RP-LC retention time was determined as 929 s.

As for `CCn1cnc(S(=O)(=O)N2CCC(C(=O)Nc3nc4ccc(C)cc4s3)CC2)c1`, the RP-LC retention time was determined as 812 s.

In turn, `Cc1ccc(-c2nc3nc(C)cc(C)n3c2Nc2ccc(C(C)C)cc2)cc1` registered an RP-LC retention time of 870 s.

The compound `Cc1cc(C)n(CCNC(=O)c2ccc3nsnc3c2)n1` gave an RP-LC retention time of 638 s.

In turn, `CCn1c(N2CCCC(C(=O)NCc3cccnc3)C2)cc(=O)n(C)c1=O` (stereo not drawn) had an RP-LC retention time of 575 s.

As to `COc1ccc(Cl)cc1NC(=O)CCc1c(-c2ccc(F)cc2)nc2ccccn12`, the RP-LC retention time amounted to 724 s.

For the compound `Cc1ccsc1C(=O)NCCn1c(=O)n(Cc2ccc(F)cc2)c2cccnc21`, the RP-LC retention time was 824 s.

In turn, `COCC(=O)Nc1cc(-c2nc3ccc(C)cc3[nH]2)ccc1C` came in with an RP-LC retention time of 620 s.

In turn, `Cc1cc(N2C=C(C(=O)N3CCOCC3)S(=O)(=O)c3ccc(F)cc32)ccc1Br` yielded an RP-LC retention time of 892 s.

Values taken from the METLIN SMRT retention time set (Domingo-Almenara et al. 2019).
